The structures appear in SMILES notation.

The results in this text go back to US12187723B2 (BRISTOL-MYERS SQUIBB COMPANY, priority 2019, dated 2025).

One experiment has as its target T1, human TLR7 (Homo sapiens, UniProt Q9NYK1).
T1 construct: host or cells: HEK-Blue cells
T1 sequence (Q9NYK1 27-1049): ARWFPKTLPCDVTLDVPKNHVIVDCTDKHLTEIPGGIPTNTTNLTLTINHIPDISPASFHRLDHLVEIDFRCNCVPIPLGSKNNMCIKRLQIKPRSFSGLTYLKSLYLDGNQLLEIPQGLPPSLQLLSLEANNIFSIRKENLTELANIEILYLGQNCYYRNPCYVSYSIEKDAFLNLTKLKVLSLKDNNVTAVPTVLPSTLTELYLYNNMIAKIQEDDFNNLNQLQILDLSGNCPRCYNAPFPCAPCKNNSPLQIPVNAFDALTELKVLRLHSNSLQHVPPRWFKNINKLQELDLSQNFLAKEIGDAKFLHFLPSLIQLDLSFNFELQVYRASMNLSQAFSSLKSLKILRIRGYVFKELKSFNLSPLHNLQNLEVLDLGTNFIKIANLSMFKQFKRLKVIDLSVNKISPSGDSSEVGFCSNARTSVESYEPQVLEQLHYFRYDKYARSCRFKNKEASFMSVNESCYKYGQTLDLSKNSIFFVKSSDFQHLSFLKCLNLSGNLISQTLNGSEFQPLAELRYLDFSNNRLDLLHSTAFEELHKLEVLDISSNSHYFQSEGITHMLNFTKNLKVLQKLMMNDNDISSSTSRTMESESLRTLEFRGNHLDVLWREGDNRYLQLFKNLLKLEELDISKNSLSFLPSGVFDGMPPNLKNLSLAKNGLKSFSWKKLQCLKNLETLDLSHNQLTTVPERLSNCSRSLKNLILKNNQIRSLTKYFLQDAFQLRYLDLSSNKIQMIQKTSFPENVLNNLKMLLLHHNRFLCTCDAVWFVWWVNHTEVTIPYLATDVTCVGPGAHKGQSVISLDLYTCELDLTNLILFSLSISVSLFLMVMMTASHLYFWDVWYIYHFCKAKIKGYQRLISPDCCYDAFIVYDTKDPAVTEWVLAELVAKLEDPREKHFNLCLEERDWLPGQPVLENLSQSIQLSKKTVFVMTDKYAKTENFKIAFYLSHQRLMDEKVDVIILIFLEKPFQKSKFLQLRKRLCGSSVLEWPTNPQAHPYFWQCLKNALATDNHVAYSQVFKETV
As to the kind of experiment: TLR7 inhibition reporter assay (HEK-Blue SEAP). To be noted: HEK-Blue cells overexpressing human TLR7, gardiquimod 7.5 μM, 22 hour incubation. The experiment is classed as cell-based. The essentials:
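SEAP readout via HEK-Blue Detection medium after 22 h at 37 °C, 5% CO2 defines inhibition, normalized between agonist-plus-DMSO wells and a reference inhibitor. Compound dose range 0.05 nM–50 μM; TLR7 cells at 15,000/well (gardiquimod), TLR8 at 20,000/well (R848).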

Another experiment concerns the target T2, human TLR8 (Homo sapiens, UniProt Q9NR97).
T2 construct: host or cells: HEK-Blue cells
T2 sequence (Q9NR97 27-1041): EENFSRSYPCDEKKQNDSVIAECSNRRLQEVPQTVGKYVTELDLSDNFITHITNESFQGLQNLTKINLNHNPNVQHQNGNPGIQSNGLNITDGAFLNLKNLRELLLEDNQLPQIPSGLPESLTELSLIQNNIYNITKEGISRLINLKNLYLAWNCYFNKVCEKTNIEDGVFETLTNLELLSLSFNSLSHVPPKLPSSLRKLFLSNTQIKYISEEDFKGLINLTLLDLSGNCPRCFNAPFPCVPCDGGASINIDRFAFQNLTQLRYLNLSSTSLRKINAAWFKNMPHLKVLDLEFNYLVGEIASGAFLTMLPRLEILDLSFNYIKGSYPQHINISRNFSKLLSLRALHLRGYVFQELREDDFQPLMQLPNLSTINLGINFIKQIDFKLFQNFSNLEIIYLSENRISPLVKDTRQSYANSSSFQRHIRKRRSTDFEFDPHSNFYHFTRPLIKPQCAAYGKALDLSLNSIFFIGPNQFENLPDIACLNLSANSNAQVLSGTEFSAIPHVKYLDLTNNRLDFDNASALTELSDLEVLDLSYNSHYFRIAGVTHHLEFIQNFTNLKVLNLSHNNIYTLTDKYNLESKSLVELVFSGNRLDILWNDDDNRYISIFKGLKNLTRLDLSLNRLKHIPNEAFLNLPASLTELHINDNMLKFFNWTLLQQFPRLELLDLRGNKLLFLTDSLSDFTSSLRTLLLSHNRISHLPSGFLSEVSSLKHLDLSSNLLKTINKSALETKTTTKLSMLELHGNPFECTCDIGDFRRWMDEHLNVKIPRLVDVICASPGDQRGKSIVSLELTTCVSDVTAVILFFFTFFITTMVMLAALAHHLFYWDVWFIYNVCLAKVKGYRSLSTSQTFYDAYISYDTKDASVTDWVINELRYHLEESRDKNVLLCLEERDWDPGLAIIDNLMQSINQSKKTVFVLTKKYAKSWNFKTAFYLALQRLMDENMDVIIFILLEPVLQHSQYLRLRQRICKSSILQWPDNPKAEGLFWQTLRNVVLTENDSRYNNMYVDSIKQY
The experiment in a line: TLR8 inhibition reporter assay (HEK-Blue SEAP). The experiment is classed as cell-based. The following applies: HEK-Blue cells overexpressing human TLR8, R848 15.9 μM, 22 hour incubation. The method, boiled down: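 HEK-Blue cells overexpressing human TLR7, TLR8 or TLR9 carry a SEAP reporter driven by NF-κB/AP-1 sites. Compounds (0.05 nM–50 μM) were preincubated 30 min at room temperature, then cells were stimulated with gardiquimod 7.5 μM (TLR7), R848 15.9 μM (TLR8) or ODN2006 5 nM (TLR9) for 22 h at 37 °C.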
(In general: Reporter assays use an easily measured gene product as a stand-in for the process of interest.)

By IC50 is commonly meant the concentration needed to halve the response being measured. Regarding `COc1cc(-c2cc3[nH]c(=O)n(C4CCC(N5C6CCC5COC6)CC4)c3cc2C(C)C)cn2ncnc12` (single isomer, unassigned) [Example 253, 1-(4-(3-oxa-8-azabicyclo[3.2.1]octan-8-yl)cyclohexyl)-6-isopropyl-5-(8-methoxy-[1,2,4]triazolo[1,5-a]pyridin-6-yl)-1,3-dihydro-2H-benzo[d]imidazol-2-one], the 50% inhibitory concentration (IC50) was determined as 4.75 nM at human TLR7 and 4.33 nM at human TLR8.

Take `Cc1cc2c(cc1-c1cc(C)c3ncnn3c1)[nH]c(=O)n2[C@@H]1CCCN(C2CCOCC2)C1` [Example 27, (R)-6-methyl-5-(8-methyl-[1,2,4]triazolo[1,5-a]pyridin-6-yl)-1-(1-(tetrahydro-2H-pyran-4-yl)piperidin-3-yl)-1,3-dihydro-2H-benzo[d]imidazol-2-one]: the figures for the IC50 on human TLR7 and on human TLR8 were 79.5 nM and 50 nM, respectively.

Consider `COc1cc(-c2cc3[nH]c(=O)n(C4CCC(N5CC6(C5)CS(=O)(=O)C6)CC4)c3cc2C(C)C)cn2ncnc12` (single isomer, unassigned) [Example 245, 1-(4-(2,2-dioxido-2-thia-6-azaspiro[3.3]heptan-6-yl)cyclohexyl)-6-isopropyl-5-(8-methoxy-[1,2,4]triazolo[1,5-a]pyridin-6-yl)-1,3-dihydro-2H-benzo[d]imidazol-2-one], for which the half-maximal inhibitory concentration (IC50) turned out to be 5.96 nM against human TLR7 and 11.7 nM against human TLR8.

Take `CCN[C@H]1CC[C@@H](n2c(=O)[nH]c3cc(-c4cc(C)c5ncnn5c4)c(C)cc32)CC1` [Example 21, 1-((1s,4s)-4-(ethylamino)cyclohexyl)-6-methyl-5-(8-methyl-[1,2,4]triazolo[1,5-a]pyridin-6-yl)-1,3-dihydro-2H-benzo[d]imidazol-2-one]: the IC50 at human TLR7 and at human TLR8 was 13.3 nM each time.

As to `COc1cc(-c2cc3[nH]c(=O)n([C@@H]4CCCNC4)c3cc2C(F)(F)F)cn2ncnc12` [110 F, (R)-5-(8-methoxy-[1,2,4]triazolo[1,5-a]pyridin-6-yl)-1-(piperidin-3-yl)-6-(trifluoromethyl)-1,3-dihydro-2H-benzo[d]imidazol-2-one], the IC50 amounted to 28.2 nM against human TLR7 and 14.8 nM against human TLR8.

With `COc1cc(-c2cc3[nH]c(=O)n(C4CCC(N5CCC(F)(F)CC5)CC4)c3cc2C(C)C)cn2ncnc12` (single isomer, unassigned) [Example 247, 1-(4-(4,4-difluoropiperidin-1-yl)cyclohexyl)-6-isopropyl-5-(8-methoxy-[1,2,4]triazolo[1,5-a]pyridin-6-yl)-1,3-dihydro-2H-benzo[d]imidazol-2-one], the IC50 amounted to 30.2 nM against human TLR7 and 0.7 nM against human TLR8.

Regarding `COc1cc(-c2cc3[nH]c(=O)n(C4CCC(N5CC(F)(F)C5)CC4)c3cc2C(C)C)cn2ncnc12` (single isomer, unassigned) [Example 296], the figures for the IC50 on human TLR7 and on human TLR8 were 31.4 nM and 3.4 nM, respectively.

As for `COc1cc(-c2cc3[nH]c(=O)n(C4CCC(N5CCC(F)(F)CC5)CC4)c3cc2C(C)C)cn2ncnc12` (single isomer, unassigned) [Example 246, 1-(4-(4,4-difluoropiperidin-1-yl)cyclohexyl)-6-isopropyl-5-(8-methoxy-[1,2,4]triazolo[1,5-a]pyridin-6-yl)-1,3-dihydro-2H-benzo[d]imidazol-2-one], the IC50 against human TLR7 turned out to be 2.81 nM; at human TLR8, 0.16 nM.

With `Cc1cc(-c2ccc3c(c2)[nH]c(=O)n3C2CCNCC2)cn2ncnc12` [1 EB, 5-(8-methyl-[1,2,4]triazolo[1,5-a]pyridin-6-yl)-1-(piperidin-4-yl)-1,3-dihydro-2H-benzo[d]imidazol-2-one], the IC50 against human TLR7 was 1160 nM; against human TLR8 it was 1030 nM.

In the case of `COc1cc(-c2cc3[nH]c(=O)n(C4CCC(N5C[C@@H](F)[C@@H](F)C5)CC4)c3cc2C(C)C)cn2ncnc12` (single isomer, unassigned) [Example 292], the IC50 at human TLR7 is 2.21 nM; against human TLR8, 0.13 nM.
